Test results as given in patent publication US10766902B2, “Wee-1 inhibiting pyrazolopyrimidinone compounds” (ALMAC DISCOVERY LIMITED, priority 2016, dated 2020).

Legend:
Type in all cases: biochemical
Settings in all cases: tested at 300-350 nM
[1] = molecular target: ABL1 (Homo sapiens (Human), UniProt P00519); test: SelectScreen Kinase Profiling: ABL1
Description: (§1) Table 4 below highlights the selectivity of a representative compound of the invention, Example 5, against a panel of 50 kinases (assessed using the Invitrogen SelectScreen® Kinase Profiling Service).

[2] = molecular target: ACVR1B (ALK4) (Homo sapiens (Human), UniProt P36896); test: SelectScreen Kinase Profiling: ACVR1B (ALK4)
Description: as §1

[3] = molecular target: AKT1 (PKB alpha) (Homo sapiens (Human), UniProt P31749); test: SelectScreen Kinase Profiling: AKT1 (PKB alpha)
Description: as §1

[4] = molecular target: AMPK A1/B1/G1 (Homo sapiens (Human), UniProt Q13131); test: SelectScreen Kinase Profiling: AMPK A1/B1/G1
Description: as §1

[5] = molecular target: AURKA (Aurora A) (Homo sapiens (Human), UniProt O14965); test: SelectScreen Kinase Profiling: AURKA (Aurora A)
Description: as §1

[6] = molecular target: BTK (Homo sapiens (Human), UniProt Q06187); test: SelectScreen Kinase Profiling: BTK
Description: as §1

[7] = molecular target: CDK1/cyclin B (Homo sapiens (Human), UniProt P06493); test: SelectScreen Kinase Profiling: CDK1/cyclin B
Description: as §1

[8] = molecular target: CHEK1 (CHK1) (Homo sapiens (Human), UniProt O14757); test: SelectScreen Kinase Profiling: CHEK1 (CHK1)
Description: as §1

[9] = molecular target: CSNK1G2 (CK1 gamma 2) (Homo sapiens (Human), UniProt P78368); test: SelectScreen Kinase Profiling: CSNK1G2 (CK1 gamma 2)
Description: as §1

[10] = molecular target: CSNK2A1 (CK2 alpha 1) (Homo sapiens (Human), UniProt P68400); test: SelectScreen Kinase Profiling: CSNK2A1 (CK2 alpha 1)
Description: as §1

[11] = molecular target: DYRK3 (Homo sapiens (Human), UniProt O43781); test: SelectScreen Kinase Profiling: DYRK3
Description: as §1

[12] = molecular target: EGFR (ErbB1) (Homo sapiens (Human), UniProt P00533); test: SelectScreen Kinase Profiling: EGFR (ErbB1)
Description: as §1

[13] = molecular target: EPHA2 (Homo sapiens (Human), UniProt P29317); test: SelectScreen Kinase Profiling: EPHA2
Description: as §1

[14] = molecular target: ERBB2 (HER2) (Homo sapiens (Human), UniProt P04626); test: SelectScreen Kinase Profiling: ERBB2 (HER2)
Description: as §1

[15] = molecular target: FGFR1 (Homo sapiens (Human), UniProt P11362); test: SelectScreen Kinase Profiling: FGFR1
Description: as §1

[16] = molecular target: FLT3 (Homo sapiens (Human), UniProt P36888); test: SelectScreen Kinase Profiling: FLT3
Description: as §1

[17] = molecular target: FRAP1 (mTOR) (Homo sapiens (Human), UniProt P42345); test: SelectScreen Kinase Profiling: FRAP1 (mTOR)
Description: as §1

[18] = molecular target: GSK3B (GSK3 beta) (Homo sapiens (Human), UniProt P49841); test: SelectScreen Kinase Profiling: GSK3B (GSK3 beta)
Description: as §1

[19] = molecular target: IGF1R (Homo sapiens (Human), UniProt P08069); test: SelectScreen Kinase Profiling: IGF1R
Description: as §1

[20] = molecular target: IKBKB (IKK beta) (Homo sapiens (Human), UniProt O14920); test: SelectScreen Kinase Profiling: IKBKB (IKK beta)
Description: as §1

[21] = molecular target: INSR (Homo sapiens (Human), UniProt P06213); test: SelectScreen Kinase Profiling: INSR
Description: as §1

[22] = molecular target: IRAK4 (Homo sapiens (Human), UniProt Q9NWZ3); test: SelectScreen Kinase Profiling: IRAK4
Description: as §1

[23] = molecular target: JAK3 (Homo sapiens (Human), UniProt P52333); test: SelectScreen Kinase Profiling: JAK3
Description: as §1

[24] = molecular target: KDR (VEGFR2) (Homo sapiens (Human), UniProt P35968); test: SelectScreen Kinase Profiling: KDR (VEGFR2)
Description: as §1

[25] = molecular target: KIT (Homo sapiens (Human), UniProt P10721); test: SelectScreen Kinase Profiling: KIT
Description: as §1

[26] = molecular target: MAP2K1 (MEK1) (Homo sapiens (Human), UniProt Q02750); test: SelectScreen Kinase Profiling: MAP2K1 (MEK1)
Description: as §1

[27] = molecular target: MAP4K4 (HGK) (Homo sapiens (Human), UniProt O95819); test: SelectScreen Kinase Profiling: MAP4K4 (HGK)
Description: as §1

[28] = molecular target: MAPK1 (ERK2) (Homo sapiens (Human), UniProt P28482); test: SelectScreen Kinase Profiling: MAPK1 (ERK2)
Description: as §1

[29] = molecular target: MAPK14 (p38 alpha) (Homo sapiens (Human), UniProt Q16539); test: SelectScreen Kinase Profiling: MAPK14 (p38 alpha)
Description: as §1

[30] = molecular target: MAPK8 (JNK1) (Homo sapiens (Human), UniProt P45983); test: SelectScreen Kinase Profiling: MAPK8 (JNK1)
Description: as §1

[31] = molecular target: MAPKAPK2 (Homo sapiens (Human), UniProt P49137); test: SelectScreen Kinase Profiling: MAPKAPK2
Description: as §1

[32] = molecular target: MARK2 (Homo sapiens (Human), UniProt Q7KZI7); test: SelectScreen Kinase Profiling: MARK2
Description: as §1

[33] = molecular target: MET (cMet) (Homo sapiens (Human), UniProt P08581); test: SelectScreen Kinase Profiling: MET (cMet)
Description: as §1

[34] = molecular target: NEK1 (Homo sapiens (Human), UniProt Q96PY6); test: SelectScreen Kinase Profiling: NEK1
Description: as §1

[35] = molecular target: NTRK1 (TRKA) (Homo sapiens (Human), UniProt P04629); test: SelectScreen Kinase Profiling: NTRK1 (TRKA)
Description: as §1

[36] = molecular target: PAK4 (Homo sapiens (Human), UniProt O96013); test: SelectScreen Kinase Profiling: PAK4
Description: as §1

[37] = molecular target: PDGFRB (PDGFR beta) (Homo sapiens (Human), UniProt P09619); test: SelectScreen Kinase Profiling: PDGFRB (PDGFR beta)
Description: as §1

[38] = molecular target: PHKG2 (Homo sapiens (Human), UniProt P15735); test: SelectScreen Kinase Profiling: PHKG2
Description: as §1

[39] = molecular target: PIM1 (Homo sapiens (Human), UniProt P11309); test: SelectScreen Kinase Profiling: PIM1
Description: as §1

[40] = molecular target: PLK1 (Homo sapiens (Human), UniProt P53350); test: SelectScreen Kinase Profiling: PLK1
Description: as §1

[41] = molecular target: PRKACA (PKA) (Homo sapiens (Human), UniProt P17612); test: SelectScreen Kinase Profiling: PRKACA (PKA)
Description: as §1

[42] = molecular target: PRKCB1 (PKC beta I) (Homo sapiens (Human), UniProt P05771); test: SelectScreen Kinase Profiling: PRKCB1 (PKC beta I)
Description: as §1

[43] = molecular target: ROCK1 (Homo sapiens (Human), UniProt Q13464); test: SelectScreen Kinase Profiling: ROCK1
Description: as §1

[44] = molecular target: RPS6KA3 (RSK2) (Homo sapiens (Human), UniProt P51812); test: SelectScreen Kinase Profiling: RPS6KA3 (RSK2)
Description: as §1

[45] = molecular target: RPS6KB1 (p70S6K) (Homo sapiens (Human), UniProt P23443); test: SelectScreen Kinase Profiling: RPS6KB1 (p70S6K)
Description: as §1

[46] = molecular target: SRC (Homo sapiens (Human), UniProt P12931); test: SelectScreen Kinase Profiling: SRC
Description: as §1

[47] = molecular target: SYK (Homo sapiens (Human), UniProt P43405); test: SelectScreen Kinase Profiling: SYK
Description: as §1

[48] = molecular target: TEK (Tie2) (Homo sapiens (Human), UniProt Q02763); test: SelectScreen Kinase Profiling: TEK (Tie2)
Description: as §1

Chain of PDGFRB (PDGFR beta) (P09619 33-1106): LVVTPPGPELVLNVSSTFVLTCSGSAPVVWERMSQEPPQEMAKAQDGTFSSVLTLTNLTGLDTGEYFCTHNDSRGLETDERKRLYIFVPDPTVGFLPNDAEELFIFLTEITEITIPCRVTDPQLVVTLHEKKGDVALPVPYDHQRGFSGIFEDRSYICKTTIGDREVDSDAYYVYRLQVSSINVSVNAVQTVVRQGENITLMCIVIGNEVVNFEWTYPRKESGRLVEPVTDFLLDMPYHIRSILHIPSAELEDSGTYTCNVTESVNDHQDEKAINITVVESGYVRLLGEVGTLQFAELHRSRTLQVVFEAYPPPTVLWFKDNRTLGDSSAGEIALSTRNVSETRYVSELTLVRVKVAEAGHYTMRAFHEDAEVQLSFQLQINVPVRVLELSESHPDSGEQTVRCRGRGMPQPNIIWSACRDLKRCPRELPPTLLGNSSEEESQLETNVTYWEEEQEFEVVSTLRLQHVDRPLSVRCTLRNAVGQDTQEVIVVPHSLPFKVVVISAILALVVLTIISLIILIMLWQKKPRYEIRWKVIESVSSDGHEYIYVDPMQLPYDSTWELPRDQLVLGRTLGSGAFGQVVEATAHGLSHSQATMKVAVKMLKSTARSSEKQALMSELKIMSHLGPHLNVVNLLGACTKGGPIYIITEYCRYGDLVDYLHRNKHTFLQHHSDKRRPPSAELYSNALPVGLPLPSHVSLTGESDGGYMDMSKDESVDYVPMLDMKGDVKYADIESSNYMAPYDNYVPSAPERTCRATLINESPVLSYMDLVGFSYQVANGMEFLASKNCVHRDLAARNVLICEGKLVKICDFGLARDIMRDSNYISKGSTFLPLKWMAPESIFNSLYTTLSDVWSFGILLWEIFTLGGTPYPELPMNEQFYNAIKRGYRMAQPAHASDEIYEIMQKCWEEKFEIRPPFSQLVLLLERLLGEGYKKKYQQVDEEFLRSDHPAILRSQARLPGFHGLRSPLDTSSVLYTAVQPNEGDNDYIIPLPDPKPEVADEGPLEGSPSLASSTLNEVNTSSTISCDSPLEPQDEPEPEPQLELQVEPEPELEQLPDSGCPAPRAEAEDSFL
Chain of AURKA (Aurora A) (O14965 whole entry): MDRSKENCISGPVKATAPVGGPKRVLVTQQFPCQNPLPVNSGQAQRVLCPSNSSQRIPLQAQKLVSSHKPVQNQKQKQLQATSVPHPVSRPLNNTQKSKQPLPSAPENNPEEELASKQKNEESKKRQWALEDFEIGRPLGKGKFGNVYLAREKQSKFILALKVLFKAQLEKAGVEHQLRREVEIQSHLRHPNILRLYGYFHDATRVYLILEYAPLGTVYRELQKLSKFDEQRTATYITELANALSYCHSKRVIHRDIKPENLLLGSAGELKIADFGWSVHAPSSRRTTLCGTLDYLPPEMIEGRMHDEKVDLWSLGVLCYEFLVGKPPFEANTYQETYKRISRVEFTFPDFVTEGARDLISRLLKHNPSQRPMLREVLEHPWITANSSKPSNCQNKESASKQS
Chain of ABL1 (P00519 whole entry): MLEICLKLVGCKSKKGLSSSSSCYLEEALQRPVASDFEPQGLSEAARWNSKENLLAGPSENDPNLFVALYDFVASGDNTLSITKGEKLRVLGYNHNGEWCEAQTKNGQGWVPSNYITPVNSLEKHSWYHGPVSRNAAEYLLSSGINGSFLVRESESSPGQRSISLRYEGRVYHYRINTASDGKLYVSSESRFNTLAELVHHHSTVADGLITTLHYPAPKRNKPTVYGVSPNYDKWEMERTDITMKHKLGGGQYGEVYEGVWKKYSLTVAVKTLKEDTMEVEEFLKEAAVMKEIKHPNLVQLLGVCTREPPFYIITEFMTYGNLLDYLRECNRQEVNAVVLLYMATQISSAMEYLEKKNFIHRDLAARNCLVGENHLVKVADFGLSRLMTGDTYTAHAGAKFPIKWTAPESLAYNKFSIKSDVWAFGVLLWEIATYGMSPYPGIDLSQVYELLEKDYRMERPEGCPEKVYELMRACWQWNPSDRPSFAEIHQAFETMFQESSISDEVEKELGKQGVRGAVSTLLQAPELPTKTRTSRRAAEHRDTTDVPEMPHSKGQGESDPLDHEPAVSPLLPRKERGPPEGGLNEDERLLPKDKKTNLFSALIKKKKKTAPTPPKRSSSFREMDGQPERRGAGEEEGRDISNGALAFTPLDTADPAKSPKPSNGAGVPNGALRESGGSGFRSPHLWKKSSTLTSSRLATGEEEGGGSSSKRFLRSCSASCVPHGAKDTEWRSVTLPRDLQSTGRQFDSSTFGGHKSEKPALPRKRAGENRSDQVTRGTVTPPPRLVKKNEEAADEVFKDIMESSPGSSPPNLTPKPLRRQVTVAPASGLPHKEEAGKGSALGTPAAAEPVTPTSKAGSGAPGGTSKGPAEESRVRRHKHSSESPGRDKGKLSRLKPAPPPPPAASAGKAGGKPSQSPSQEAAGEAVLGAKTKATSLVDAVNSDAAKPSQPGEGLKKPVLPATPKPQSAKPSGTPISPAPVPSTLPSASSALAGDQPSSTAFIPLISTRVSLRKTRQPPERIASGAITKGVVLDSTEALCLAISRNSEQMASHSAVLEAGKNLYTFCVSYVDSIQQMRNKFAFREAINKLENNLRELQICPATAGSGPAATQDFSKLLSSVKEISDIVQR
Chain of DYRK3 (O43781 whole entry): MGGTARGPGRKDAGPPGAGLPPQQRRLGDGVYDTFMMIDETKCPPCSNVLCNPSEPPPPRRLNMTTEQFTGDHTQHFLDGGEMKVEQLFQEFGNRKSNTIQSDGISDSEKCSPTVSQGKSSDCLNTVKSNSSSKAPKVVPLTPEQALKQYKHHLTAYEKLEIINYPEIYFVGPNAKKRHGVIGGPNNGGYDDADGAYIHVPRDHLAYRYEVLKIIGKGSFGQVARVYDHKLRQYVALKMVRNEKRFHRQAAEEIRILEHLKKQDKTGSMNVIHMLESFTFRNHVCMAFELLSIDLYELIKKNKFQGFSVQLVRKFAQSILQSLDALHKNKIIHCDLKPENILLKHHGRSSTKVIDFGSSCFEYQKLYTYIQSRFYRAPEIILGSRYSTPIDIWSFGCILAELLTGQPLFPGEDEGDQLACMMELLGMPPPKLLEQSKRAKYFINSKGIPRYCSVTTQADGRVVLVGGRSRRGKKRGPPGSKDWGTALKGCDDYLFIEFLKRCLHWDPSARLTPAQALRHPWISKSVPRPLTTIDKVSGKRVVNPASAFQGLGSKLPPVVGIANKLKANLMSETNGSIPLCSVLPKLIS
Chain of ACVR1B (ALK4) (P36896 24-505): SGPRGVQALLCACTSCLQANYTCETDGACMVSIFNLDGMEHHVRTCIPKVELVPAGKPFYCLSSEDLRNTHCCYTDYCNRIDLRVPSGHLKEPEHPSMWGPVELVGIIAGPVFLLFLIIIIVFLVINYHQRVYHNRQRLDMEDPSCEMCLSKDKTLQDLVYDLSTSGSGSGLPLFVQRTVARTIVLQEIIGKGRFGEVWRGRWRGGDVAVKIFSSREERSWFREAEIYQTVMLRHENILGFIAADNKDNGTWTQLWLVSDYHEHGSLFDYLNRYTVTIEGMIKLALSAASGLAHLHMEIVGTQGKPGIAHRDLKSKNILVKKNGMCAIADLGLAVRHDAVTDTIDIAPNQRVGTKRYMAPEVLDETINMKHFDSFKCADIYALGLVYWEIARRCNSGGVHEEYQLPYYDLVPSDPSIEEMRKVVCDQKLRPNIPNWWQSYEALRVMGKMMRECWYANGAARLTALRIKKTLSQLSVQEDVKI
Chain of EPHA2 (P29317 24-976): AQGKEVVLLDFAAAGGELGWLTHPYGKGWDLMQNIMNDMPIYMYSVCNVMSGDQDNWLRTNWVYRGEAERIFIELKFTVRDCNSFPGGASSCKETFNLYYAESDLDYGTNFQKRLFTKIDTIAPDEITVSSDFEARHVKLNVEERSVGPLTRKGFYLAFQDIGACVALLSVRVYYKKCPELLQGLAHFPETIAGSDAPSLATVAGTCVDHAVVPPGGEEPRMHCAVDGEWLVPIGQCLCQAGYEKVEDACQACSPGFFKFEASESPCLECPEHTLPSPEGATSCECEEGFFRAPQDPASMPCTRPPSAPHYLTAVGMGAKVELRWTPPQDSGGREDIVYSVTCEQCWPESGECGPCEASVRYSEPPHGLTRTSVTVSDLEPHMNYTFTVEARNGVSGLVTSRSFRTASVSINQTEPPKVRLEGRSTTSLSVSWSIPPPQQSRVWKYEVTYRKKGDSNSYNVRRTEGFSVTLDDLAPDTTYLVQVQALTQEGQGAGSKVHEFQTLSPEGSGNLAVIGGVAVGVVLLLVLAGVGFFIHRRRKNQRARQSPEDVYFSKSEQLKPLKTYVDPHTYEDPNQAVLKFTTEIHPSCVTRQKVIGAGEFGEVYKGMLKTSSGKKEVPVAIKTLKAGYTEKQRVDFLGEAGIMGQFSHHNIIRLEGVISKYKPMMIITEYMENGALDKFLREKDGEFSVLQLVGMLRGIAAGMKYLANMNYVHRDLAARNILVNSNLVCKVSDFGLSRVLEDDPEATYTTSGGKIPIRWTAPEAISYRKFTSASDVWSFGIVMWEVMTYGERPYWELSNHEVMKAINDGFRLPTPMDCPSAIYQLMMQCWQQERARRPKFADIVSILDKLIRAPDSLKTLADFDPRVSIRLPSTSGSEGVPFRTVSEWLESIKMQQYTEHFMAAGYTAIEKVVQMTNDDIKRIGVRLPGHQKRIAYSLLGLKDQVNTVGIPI
Chain of GSK3B (GSK3 beta) (P49841 whole entry): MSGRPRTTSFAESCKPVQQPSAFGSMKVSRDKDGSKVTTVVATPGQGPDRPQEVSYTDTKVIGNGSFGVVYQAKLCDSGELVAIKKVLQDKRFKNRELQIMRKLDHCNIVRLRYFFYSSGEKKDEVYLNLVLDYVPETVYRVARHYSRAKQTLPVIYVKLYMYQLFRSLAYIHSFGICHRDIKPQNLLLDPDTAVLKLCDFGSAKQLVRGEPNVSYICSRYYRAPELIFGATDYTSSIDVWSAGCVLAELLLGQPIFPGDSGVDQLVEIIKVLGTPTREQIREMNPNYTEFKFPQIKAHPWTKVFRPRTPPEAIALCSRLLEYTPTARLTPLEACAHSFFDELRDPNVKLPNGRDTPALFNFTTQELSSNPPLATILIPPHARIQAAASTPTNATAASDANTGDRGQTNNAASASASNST

Q: What does the source list for `C=CCn1c(=O)c2cnc(Nc3ccc(N4CCN(C)CC4)cc3)nc2n1-c1cccc(C(C)(C)O)n1` [reference compound]?
A: inhibition of ABL1 [1]: + (inhibition over 50% (tested at 300-350 nM)); inhibition of ACVR1B (ALK4) [2]: − (inhibition under 50% (tested at 300-350 nM)); inhibition of AKT1 (PKB alpha) [3]: − (inhibition under 50% (tested at 300-350 nM)); inhibition of AMPK A1/B1/G1 [4]: − (inhibition under 50% (tested at 300-350 nM)); inhibition of AURKA (Aurora A) [5]: − (inhibition under 50% (tested at 300-350 nM)); inhibition of BTK [6]: − (inhibition under 50% (tested at 300-350 nM)); inhibition of CDK1/cyclin B [7]: − (inhibition under 50% (tested at 300-350 nM)); inhibition of CHEK1 (CHK1) [8]: − (inhibition under 50% (tested at 300-350 nM)); inhibition of CSNK1G2 (CK1 gamma 2) [9]: − (inhibition under 50% (tested at 300-350 nM)); inhibition of CSNK2A1 (CK2 alpha 1) [10]: − (inhibition under 50% (tested at 300-350 nM)); inhibition of DYRK3 [11]: − (inhibition under 50% (tested at 300-350 nM)); inhibition of EGFR (ErbB1) [12]: + (inhibition over 50% (tested at 300-350 nM)); inhibition of EPHA2 [13]: − (inhibition under 50% (tested at 300-350 nM)); inhibition of ERBB2 (HER2) [14]: − (inhibition under 50% (tested at 300-350 nM)); inhibition of FGFR1 [15]: − (inhibition under 50% (tested at 300-350 nM)); inhibition of FLT3 [16]: − (inhibition under 50% (tested at 300-350 nM)); inhibition of FRAP1 (mTOR) [17]: − (inhibition under 50% (tested at 300-350 nM)); inhibition of GSK3B (GSK3 beta) [18]: − (inhibition under 50% (tested at 300-350 nM)); inhibition of IGF1R [19]: − (inhibition under 50% (tested at 300-350 nM)); inhibition of IKBKB (IKK beta) [20]: − (inhibition under 50% (tested at 300-350 nM)); inhibition of INSR [21]: − (inhibition under 50% (tested at 300-350 nM)); inhibition of IRAK4 [22]: − (inhibition under 50% (tested at 300-350 nM)); inhibition of JAK3 [23]: − (inhibition under 50% (tested at 300-350 nM)); inhibition of KDR (VEGFR2) [24]: − (inhibition under 50% (tested at 300-350 nM)); inhibition of KIT [25]: − (inhibition under 50% (tested at 300-350 nM)); inhibition of MAP2K1 (MEK1) [26]: − (inhibition under 50% (tested at 300-350 nM)); inhibition of MAP4K4 (HGK) [27]: + (inhibition over 50% (tested at 300-350 nM)); inhibition of MAPK1 (ERK2) [28]: − (inhibition under 50% (tested at 300-350 nM)); inhibition of MAPK14 (p38 alpha) [29]: − (inhibition under 50% (tested at 300-350 nM)); inhibition of MAPK8 (JNK1) [30]: − (inhibition under 50% (tested at 300-350 nM)); inhibition of MAPKAPK2 [31]: − (inhibition under 50% (tested at 300-350 nM)); inhibition of MARK2 [32]: − (inhibition under 50% (tested at 300-350 nM)); inhibition of MET (cMet) [33]: − (inhibition under 50% (tested at 300-350 nM)); inhibition of NEK1 [34]: − (inhibition under 50% (tested at 300-350 nM)); inhibition of NTRK1 (TRKA) [35]: − (inhibition under 50% (tested at 300-350 nM)); inhibition of PAK4 [36]: − (inhibition under 50% (tested at 300-350 nM)); inhibition of PDGFRB (PDGFR beta) [37]: − (inhibition under 50% (tested at 300-350 nM)); inhibition of PHKG2 [38]: − (inhibition under 50% (tested at 300-350 nM)); inhibition of PIM1 [39]: − (inhibition under 50% (tested at 300-350 nM)); inhibition of PLK1 [40]: − (inhibition under 50% (tested at 300-350 nM)); inhibition of PRKACA (PKA) [41]: − (inhibition under 50% (tested at 300-350 nM)); inhibition of PRKCB1 (PKC beta I) [42]: − (inhibition under 50% (tested at 300-350 nM)); inhibition of ROCK1 [43]: − (inhibition under 50% (tested at 300-350 nM)); inhibition of RPS6KA3 (RSK2) [44]: − (inhibition under 50% (tested at 300-350 nM)); inhibition of RPS6KB1 (p70S6K) [45]: − (inhibition under 50% (tested at 300-350 nM)); inhibition of SRC [46]: + (inhibition over 50% (tested at 300-350 nM)); inhibition of SYK [47]: + (inhibition over 50% (tested at 300-350 nM)); inhibition of TEK (Tie2) [48]: − (inhibition under 50% (tested at 300-350 nM))
